Assay results published in ChEMBL document CHEMBL1201862, “PubChem BioAssay data set” (2004).
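Exposure lasted 48 hours, with cells grown in 96-well plates and compounds tested at five concentrations. GI50 = concentration required for 50% inhibition of growth.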 Calls of active or inactive are those of the source. No stated cut-off is given here; in the data, active = GI50 up to about 1.1 µM and inactive = higher.

Key:
Assay in all cases: DTP human tumour cell line panel, 48 h
SW-620 = tested on: SW-620
OVCAR-8 = tested on: OVCAR-8
LOX IMVI = tested on: LOX IMVI
COLO 205 = tested on: COLO 205
OVCAR-5 = tested on: OVCAR-5
UACC-62 = tested on: UACC-62
A549 = tested on: A549
M14 = tested on: M14
CAKI-1 = tested on: CAKI-1
SN12C = tested on: SN12C
Hs-578T = tested on: Hs-578T
PC-3 = tested on: PC-3
HCT-116 = tested on: HCT-116
SF-295 = tested on: SF-295
HCC 2998 = tested on: HCC 2998
HT-29 = tested on: HT-29
RPMI-8226 = tested on: RPMI-8226
ACHN = tested on: ACHN
OVCAR-3 = tested on: OVCAR-3
HOP-92 = tested on: HOP-92
A498 = tested on: A498
SK-MEL-5 = tested on: SK-MEL-5
CCRF-CEM = tested on: CCRF-CEM
SR = tested on: SR
EKVX = tested on: EKVX
U-251 = tested on: U-251
MCF7 = tested on: MCF7
HCT-15 = tested on: HCT-15
SK-OV-3 = tested on: SK-OV-3
NCI-H23 = tested on: NCI-H23
DU-145 = tested on: DU-145
TK-10 = tested on: TK-10
T47D = tested on: T47D
Malme-3M = tested on: Malme-3M
RXF 393 = tested on: RXF 393
SK-MEL-28 = tested on: SK-MEL-28
MDA-MB-231 = tested on: MDA-MB-231
NCI-H226 = tested on: NCI-H226
UO-31 = tested on: UO-31
NCI/ADR-RES = tested on: NCI/ADR-RES
OVCAR-4 = tested on: OVCAR-4
786-0 = tested on: 786-0
SF-268 = tested on: SF-268
MDA-MB-435 = tested on: MDA-MB-435
SNB-75 = tested on: SNB-75
NCI-H460 = tested on: NCI-H460
HL-60 = tested on: HL-60
MDA-N = tested on: MDA-N
SK-MEL-2 = tested on: SK-MEL-2
IGROV-1 = tested on: IGROV-1
K562 = tested on: K562
NCI-H522 = tested on: NCI-H522
HOP-62 = tested on: HOP-62
SNB-19 = tested on: SNB-19
BT-549 = tested on: BT-549
KM12 = tested on: KM12
UACC-257 = tested on: UACC-257
MOLT-4 = tested on: MOLT-4

Nc1ccccc1.O=P(O)(OP(=O)(O)c1ccccc1)c1ccccc1
GI50 (SW-620): > 100 µM (inactive) | GI50 (OVCAR-8): > 100 µM (inactive) | GI50 (LOX IMVI): > 100 µM (inactive) | GI50 (COLO 205): > 100 µM (inactive) | GI50 (OVCAR-5): > 100 µM (inactive) | GI50 (UACC-62): > 100 µM (inactive) | GI50 (A549): > 100 µM (inactive) | GI50 (M14): > 100 µM (inactive) | GI50 (CAKI-1): > 100 µM (inactive) | GI50 (SN12C): > 100 µM (inactive) | GI50 (Hs-578T): > 100 µM (inactive) | GI50 (PC-3): > 100 µM (inactive) | GI50 (HCT-116): > 100 µM (inactive) | GI50 (SF-295): 96.4 µM (inactive) | GI50 (HCC 2998): > 100 µM (inactive) | GI50 (HT-29): > 100 µM (inactive) | GI50 (RPMI-8226): > 100 µM (inactive) | GI50 (ACHN): > 100 µM (inactive) | GI50 (OVCAR-3): > 100 µM (inactive) | GI50 (HOP-92): > 100 µM (inactive) | GI50 (A498): > 100 µM (inactive) | GI50 (SK-MEL-5): > 100 µM (inactive) | GI50 (CCRF-CEM): > 100 µM (inactive) | GI50 (SR): > 100 µM (inactive) | GI50 (EKVX): > 100 µM (inactive) | GI50 (U-251): > 100 µM (inactive) | GI50 (MCF7): > 100 µM (inactive) | GI50 (HCT-15): 89.3 µM | GI50 (SK-OV-3): > 100 µM (inactive) | GI50 (NCI-H23): > 100 µM (inactive) | GI50 (DU-145): > 100 µM (inactive) | GI50 (TK-10): > 100 µM (inactive) | GI50 (T47D): > 100 µM (inactive) | GI50 (Malme-3M): > 100 µM (inactive) | GI50 (RXF 393): > 100 µM (inactive) | GI50 (SK-MEL-28): > 100 µM (inactive) | GI50 (MDA-MB-231): > 100 µM (inactive) | GI50 (NCI-H226): > 100 µM (inactive) | GI50 (UO-31): > 100 µM (inactive) | GI50 (NCI/ADR-RES): > 100 µM (inactive) | GI50 (OVCAR-4): > 100 µM (inactive) | GI50 (786-0): > 100 µM (inactive) | GI50 (SF-268): > 100 µM (inactive) | GI50 (MDA-MB-435): > 100 µM (inactive) | GI50 (SNB-75): > 100 µM (inactive) | GI50 (NCI-H460): > 100 µM (inactive) | GI50 (HL-60): 65.3 µM (inactive) | GI50 (MDA-N): > 100 µM (inactive) | GI50 (SK-MEL-2): > 100 µM (inactive) | GI50 (IGROV-1): > 100 µM (inactive) | GI50 (K562): > 100 µM (inactive) | GI50 (NCI-H522): > 100 µM (inactive) | GI50 (HOP-62): > 100 µM (inactive) | GI50 (SNB-19): > 100 µM (inactive) | GI50 (BT-549): > 100 µM (inactive) | GI50 (KM12): > 100 µM (inactive) | GI50 (UACC-257): > 100 µM (inactive)

CC(C)(CO)CNc1cc(=O)[nH]c(N)n1
GI50 (SW-620): > 100 µM (inactive) | GI50 (OVCAR-8): > 100 µM (inactive) | GI50 (LOX IMVI): > 100 µM (inactive) | GI50 (COLO 205): > 100 µM (inactive) | GI50 (OVCAR-5): > 100 µM (inactive) | GI50 (UACC-62): > 100 µM (inactive) | GI50 (A549): > 100 µM (inactive) | GI50 (M14): > 100 µM (inactive) | GI50 (CAKI-1): > 100 µM (inactive) | GI50 (SN12C): > 100 µM (inactive) | GI50 (Hs-578T): > 100 µM (inactive) | GI50 (PC-3): > 100 µM (inactive) | GI50 (HCT-116): > 100 µM (inactive) | GI50 (SF-295): > 100 µM (inactive) | GI50 (HCC 2998): > 100 µM (inactive) | GI50 (HT-29): > 100 µM (inactive) | GI50 (RPMI-8226): > 100 µM (inactive) | GI50 (ACHN): > 100 µM (inactive) | GI50 (OVCAR-3): > 100 µM (inactive) | GI50 (HOP-92): > 100 µM (inactive) | GI50 (A498): > 100 µM (inactive) | GI50 (SK-MEL-5): > 100 µM (inactive) | GI50 (CCRF-CEM): > 100 µM (inactive) | GI50 (SR): > 100 µM (inactive) | GI50 (EKVX): > 100 µM (inactive) | GI50 (U-251): > 100 µM (inactive) | GI50 (MCF7): > 100 µM (inactive) | GI50 (HCT-15): > 100 µM | GI50 (SK-OV-3): > 100 µM (inactive) | GI50 (NCI-H23): > 100 µM (inactive) | GI50 (DU-145): > 100 µM (inactive) | GI50 (T47D): > 100 µM (inactive) | GI50 (Malme-3M): > 100 µM (inactive) | GI50 (RXF 393): > 100 µM (inactive) | GI50 (SK-MEL-28): > 100 µM (inactive) | GI50 (MDA-MB-231): > 100 µM (inactive) | GI50 (NCI-H226): > 100 µM (inactive) | GI50 (MOLT-4): > 100 µM (inactive) | GI50 (UO-31): > 100 µM (inactive) | GI50 (NCI/ADR-RES): > 100 µM (inactive) | GI50 (OVCAR-4): > 100 µM (inactive) | GI50 (786-0): > 100 µM (inactive) | GI50 (SF-268): > 100 µM (inactive) | GI50 (MDA-MB-435): > 100 µM (inactive) | GI50 (SNB-75): > 100 µM (inactive) | GI50 (NCI-H460): > 100 µM (inactive) | GI50 (HL-60): > 100 µM (inactive) | GI50 (MDA-N): > 100 µM (inactive) | GI50 (SK-MEL-2): > 100 µM (inactive) | GI50 (IGROV-1): > 100 µM (inactive) | GI50 (K562): > 100 µM (inactive) | GI50 (NCI-H522): > 100 µM (inactive) | GI50 (HOP-62): > 100 µM (inactive) | GI50 (SNB-19): > 100 µM (inactive) | GI50 (BT-549): > 100 µM (inactive) | GI50 (KM12): > 100 µM (inactive) | GI50 (UACC-257): > 100 µM (inactive)
